According to paper PMC7026418, “The kinase polypharmacology landscape of clinical PARP inhibitors” (Scientific Reports, 2020):
Read-outs that look alike come from different tables or passages of the source.

Columns and labels:
Test in all cases: biochemical
Parameters in all cases: DiscoveRx KINOMEscan active site-directed competition binding; percent of control kinase bound to immobilised ligand
MAP3K2 = molecular target: T1, MAP3K2 (Homo sapiens, UniProt Q9Y2U5)
T1 sequence (Q9Y2U5 1-619): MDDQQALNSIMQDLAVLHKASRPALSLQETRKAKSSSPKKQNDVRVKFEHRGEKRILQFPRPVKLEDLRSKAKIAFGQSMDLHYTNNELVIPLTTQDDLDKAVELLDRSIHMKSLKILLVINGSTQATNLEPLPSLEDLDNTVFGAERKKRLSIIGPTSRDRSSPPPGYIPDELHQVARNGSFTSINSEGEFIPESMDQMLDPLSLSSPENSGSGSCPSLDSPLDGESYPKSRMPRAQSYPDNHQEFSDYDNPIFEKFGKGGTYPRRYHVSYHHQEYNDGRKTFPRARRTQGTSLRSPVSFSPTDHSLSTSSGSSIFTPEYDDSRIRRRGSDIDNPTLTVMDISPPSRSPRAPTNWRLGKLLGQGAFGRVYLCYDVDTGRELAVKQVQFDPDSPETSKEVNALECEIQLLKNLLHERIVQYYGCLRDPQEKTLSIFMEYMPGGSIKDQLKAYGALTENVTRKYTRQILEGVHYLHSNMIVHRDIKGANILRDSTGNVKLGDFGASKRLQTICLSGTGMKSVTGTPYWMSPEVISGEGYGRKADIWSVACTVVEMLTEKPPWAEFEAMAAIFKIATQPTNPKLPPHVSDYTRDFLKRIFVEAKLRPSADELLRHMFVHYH

CAMK2D = CAMK2D (Homo sapiens, UniProt Q13557)
CAMK2D, sequence (Q13557 whole entry): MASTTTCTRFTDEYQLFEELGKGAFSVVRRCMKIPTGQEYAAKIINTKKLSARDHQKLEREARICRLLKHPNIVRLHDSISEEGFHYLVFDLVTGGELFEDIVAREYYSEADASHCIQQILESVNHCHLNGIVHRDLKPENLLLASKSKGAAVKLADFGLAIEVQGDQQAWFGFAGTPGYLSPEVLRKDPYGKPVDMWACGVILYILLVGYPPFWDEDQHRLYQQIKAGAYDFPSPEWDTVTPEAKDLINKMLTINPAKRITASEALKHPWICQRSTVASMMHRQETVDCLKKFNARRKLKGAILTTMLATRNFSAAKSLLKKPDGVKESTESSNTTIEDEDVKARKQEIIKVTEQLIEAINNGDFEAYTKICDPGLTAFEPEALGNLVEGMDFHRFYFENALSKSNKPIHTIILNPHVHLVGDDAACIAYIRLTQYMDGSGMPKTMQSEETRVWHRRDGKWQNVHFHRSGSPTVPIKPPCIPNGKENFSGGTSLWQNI

ERK2 = molecular target: T2, ERK2 (Homo sapiens, UniProt P28482)
T2 construct: gene MAPK1
T2 sequence (P28482 whole entry): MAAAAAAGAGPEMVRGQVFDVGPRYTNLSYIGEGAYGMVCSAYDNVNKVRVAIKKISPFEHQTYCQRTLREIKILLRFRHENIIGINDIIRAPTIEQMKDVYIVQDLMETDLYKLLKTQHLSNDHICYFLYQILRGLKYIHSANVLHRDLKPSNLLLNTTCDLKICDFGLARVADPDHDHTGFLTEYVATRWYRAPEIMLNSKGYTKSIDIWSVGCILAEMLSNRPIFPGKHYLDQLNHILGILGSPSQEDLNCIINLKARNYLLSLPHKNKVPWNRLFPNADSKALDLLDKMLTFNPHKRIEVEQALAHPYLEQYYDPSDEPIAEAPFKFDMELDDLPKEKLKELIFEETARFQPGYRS

ASK1 = molecular target: T3, ASK1 (Homo sapiens, UniProt Q99683)
T3 construct: gene MAP3K5
T3 sequence (Q99683 1-1374): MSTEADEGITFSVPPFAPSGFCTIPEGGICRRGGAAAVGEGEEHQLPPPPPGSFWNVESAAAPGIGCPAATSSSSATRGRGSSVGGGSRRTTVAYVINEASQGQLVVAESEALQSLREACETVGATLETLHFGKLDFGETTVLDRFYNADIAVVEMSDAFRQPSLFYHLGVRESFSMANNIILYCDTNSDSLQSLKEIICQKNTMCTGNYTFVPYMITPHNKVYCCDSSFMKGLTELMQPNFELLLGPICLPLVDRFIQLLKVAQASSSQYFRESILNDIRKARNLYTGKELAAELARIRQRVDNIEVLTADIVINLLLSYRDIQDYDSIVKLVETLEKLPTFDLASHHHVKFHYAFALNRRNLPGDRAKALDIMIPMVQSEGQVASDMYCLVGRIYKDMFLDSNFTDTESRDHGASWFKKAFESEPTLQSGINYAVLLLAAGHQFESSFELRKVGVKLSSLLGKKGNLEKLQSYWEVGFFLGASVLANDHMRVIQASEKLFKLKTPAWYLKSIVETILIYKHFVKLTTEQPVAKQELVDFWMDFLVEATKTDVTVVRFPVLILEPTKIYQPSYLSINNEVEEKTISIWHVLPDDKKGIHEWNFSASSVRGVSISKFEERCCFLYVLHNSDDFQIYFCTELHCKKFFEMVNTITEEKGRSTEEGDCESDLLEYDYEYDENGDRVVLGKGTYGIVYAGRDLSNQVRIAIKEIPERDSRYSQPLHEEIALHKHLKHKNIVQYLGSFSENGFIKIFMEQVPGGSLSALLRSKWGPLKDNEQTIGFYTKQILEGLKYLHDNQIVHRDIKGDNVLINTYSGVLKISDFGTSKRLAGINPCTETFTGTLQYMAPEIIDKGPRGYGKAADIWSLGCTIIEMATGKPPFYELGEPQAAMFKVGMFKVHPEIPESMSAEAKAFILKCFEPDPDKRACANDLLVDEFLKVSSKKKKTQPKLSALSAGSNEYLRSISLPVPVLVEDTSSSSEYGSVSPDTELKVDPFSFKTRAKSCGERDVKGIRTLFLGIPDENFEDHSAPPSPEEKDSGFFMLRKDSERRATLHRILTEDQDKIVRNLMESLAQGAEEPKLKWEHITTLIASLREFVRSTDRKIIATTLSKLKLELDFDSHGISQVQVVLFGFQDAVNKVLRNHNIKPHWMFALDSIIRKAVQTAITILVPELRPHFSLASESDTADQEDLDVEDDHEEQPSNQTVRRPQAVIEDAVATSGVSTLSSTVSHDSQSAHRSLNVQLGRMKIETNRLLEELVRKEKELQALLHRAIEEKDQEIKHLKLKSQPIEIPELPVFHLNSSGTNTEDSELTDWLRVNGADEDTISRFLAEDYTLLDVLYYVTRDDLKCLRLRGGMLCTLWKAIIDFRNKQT

[1] = read-out: Talazoparib (BMN 673) / %Ctrl @ 10000nM
[2] = read-out: Olaparib / %Ctrl @ 10000nM
[3] = read-out: Niraparib (MK-4827) / %Ctrl @ 10000nM
[4] = read-out: Rucaparib / %Ctrl @ 10000nM, binding competition, % of control

Cn1ncnc1[C@H]1c2n[nH]c(=O)c3cc(F)cc(c23)N[C@@H]1c1ccc(F)cc1 [Talazoparib]
percent of control binding at 10 µM (MAP3K2; [1]): 98% | percent of control binding at 10 µM (CAMK2D; [1]): 99% | percent of control binding at 10 µM (ERK2; [1]): 100% | percent of control binding at 10 µM (ASK1; [1]): 93%

O=C(c1cc(Cc2n[nH]c(=O)c3ccccc23)ccc1F)N1CCN(C(=O)C2CC2)CC1 [Olaparib]
percent of control binding at 10 µM (MAP3K2; [2]): 92% | percent of control binding at 10 µM (CAMK2D; [2]): 99% | percent of control binding at 10 µM (ERK2; [2]): 93% | percent of control binding at 10 µM (ASK1; [2]): 94%

NC(=O)c1cccc2cn(-c3ccc([C@@H]4CCCNC4)cc3)nc12 [Niraparib]
percent of control binding at 10 µM (MAP3K2; [3]): 97% | percent of control binding at 10 µM (CAMK2D; [3]): 99% | percent of control binding at 10 µM (ERK2; [3]): 93% | percent of control binding at 10 µM (ASK1; [3]): 90%

CNCc1ccc(-c2[nH]c3cc(F)cc4c3c2CCNC4=O)cc1 [Rucaparib]
percent of control binding at 10 µM (MAP3K2; [4]): 82% | percent of control binding at 10 µM (CAMK2D; [4]): 89% | percent of control binding at 10 µM (ERK2; [4]): 94% | percent of control binding at 10 µM (ASK1; [4]): 92%
